Assay results published in patent EP3723746B1, “PHENOXY ACIDS FOR THE TREATMENT OF NEUROMUSCULAR DISORDERS” (NMD Pharma A/S, priority 2017, dated 2019).

Legend:
human CIC-1 channels = target: T1, human CIC-1 channels (Homo sapiens, UniProt P35523); experiment: Automated patch-clamp on the human isoform of CIC-1 expressed in CHO cells; format: cell-based; conditions: compound added intracellularly vs control cell patches; positive shift reflects CIC-1 inhibition
T1 construct: host or cells: CHO cells constitutively expressing human ClC-1
T1 sequence (P35523 whole entry, canonical isoform): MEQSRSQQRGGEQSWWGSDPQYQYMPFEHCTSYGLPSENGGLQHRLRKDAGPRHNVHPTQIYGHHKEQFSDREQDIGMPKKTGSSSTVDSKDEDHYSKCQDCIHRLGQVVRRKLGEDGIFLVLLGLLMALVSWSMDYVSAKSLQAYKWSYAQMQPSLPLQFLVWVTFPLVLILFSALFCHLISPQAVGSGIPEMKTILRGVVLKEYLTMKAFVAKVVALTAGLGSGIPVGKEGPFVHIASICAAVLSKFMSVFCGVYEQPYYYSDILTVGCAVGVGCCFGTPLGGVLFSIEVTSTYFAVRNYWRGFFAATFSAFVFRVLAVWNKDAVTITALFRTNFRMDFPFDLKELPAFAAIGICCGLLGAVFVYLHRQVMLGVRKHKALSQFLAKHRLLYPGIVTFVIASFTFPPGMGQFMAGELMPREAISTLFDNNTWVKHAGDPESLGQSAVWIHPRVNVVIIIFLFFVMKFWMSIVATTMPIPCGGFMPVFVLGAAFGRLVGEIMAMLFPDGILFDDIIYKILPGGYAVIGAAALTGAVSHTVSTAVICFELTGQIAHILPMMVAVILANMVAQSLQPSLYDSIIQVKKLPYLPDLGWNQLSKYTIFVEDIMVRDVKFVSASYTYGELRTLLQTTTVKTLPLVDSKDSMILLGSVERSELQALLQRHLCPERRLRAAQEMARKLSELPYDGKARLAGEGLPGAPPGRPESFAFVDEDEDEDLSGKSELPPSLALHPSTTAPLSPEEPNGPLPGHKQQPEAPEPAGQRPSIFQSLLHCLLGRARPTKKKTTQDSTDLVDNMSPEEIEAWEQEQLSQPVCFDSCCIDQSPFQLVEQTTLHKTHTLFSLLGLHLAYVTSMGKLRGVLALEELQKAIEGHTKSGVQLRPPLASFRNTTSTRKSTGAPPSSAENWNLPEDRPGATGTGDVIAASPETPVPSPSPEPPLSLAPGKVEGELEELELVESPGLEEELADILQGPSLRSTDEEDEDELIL
Procedure: The investigatory goal of these experiments was to evaluate how compounds affect the open probability and current amplitude of human CIC-1 channels expressed in CHO cells. Experiments were performed using an automated patch clamp system that allowed high throughput testing of whole cell patches together with both intracellular and extracellular addition of compound.
Automated whole cell patch clamp experiments were performed with the Qpatch 16 system (Sophion Bioscience, Ballerup, Denmark) at room temperature. Data acquisition and analysis were performed in the Qassay software (ver. 5.6, Odense).
To evoke CIC-1 currents in whole cell patches, the membrane potential was initially stepped from a holding potential of -30 mV to +60 mV for 100 ms and then to various test voltages (sweeps) ranging from +120 mV to -140 mV in steps of 20 mV for 300 ms. To obtain tail currents, the membrane potential was stepped to -100 mV after each test voltage for 300 ms and then relaxed to -30 mV for 2 sec between sweeps (Figure 3). I/V relationships for whole cell instant and steady state current amplitudes were obtained by plotting average current densities at the beginning and at the end of the 300 ms step against the membrane potential (Figure 4).
In order to determine the relative overall open probability (P0), the instantaneous tail currents were normalized to the maximal tail current obtained following the most positive voltage step and plotted against the test voltage. Plots of normalized tail currents from each whole cell patch were then fitted to a Boltzmann function allowing determination of half activation voltages (V1/2, Figure 5).
For automated patch clamp experiments extracellular solutions contained: 2 mM CaCl2, 1 mM MgCl2, 10 mM HEPES, 4 mM KCI, 145 mM NaCl, 10 mM Glucose, pH adjusted to 7.4 with NaOH (2 M). Osmolality adjusted to ~320 using sucrose.
Intracellular solutions contained: 80 mM CsF, 60 mM CsCI, 5/1 mM KOH/EGTA, 10 mM HEPES, 10 mM NaCl, pH adjusted to 7.2 with NaOH (2 M). Osmolality adjusted to ~320 mOsm using sucrose.
Cells used in patch clamp experiments were Chinese hamster ovary cells (CHO) constitutively expressing human CIC-1 channels. The amino acid sequence encoded by the cDNA used to create this cell line was identical to the translated sequence for GenBank accession number NM_000083.2. Cells were produced by Charles River (Catalogue CT6175, Cleveland OH, USA) in a cryopreserved format. Experiments were performed on the cells directly after thawing (3 × 10^6 cells used in each experiment).
To evaluate the compound effect on CIC-1, when applied directly to the intracellular side of the cell membrane, the half activation voltage, V1/2, was determined from whole cell patches with compound added to the intracellular solution and then compared to V1/2 determined from control cell patches with only vehicle added to the intracellular solution. Additionally, the effect of extracellular added compound was evaluated by determine V1/2 and steady state current amplitudes before and after exchanging the extracellular solution to contain compound.
The difference in half activation voltage of CIC-1 channels, ΔV1/2, was determined as the difference between the cell patches treated intracellularly with compound and control cells patches and is reported in Table 4 below. A positive shift in ΔV1/2 is reflecting CIC-1 channel inhibition by the tested compound. P-values of <0.05 is considered significant. […]

Lewis rats = experiment: Measurement of in situ muscle contractile characteristics (isometric hindlimb force under cisatracurium block); format: in vivo; conditions: 40 mg/kg i.v., cisatracurium infusion, 3 experiments
Procedure: Isometric hindlimb force was measured in 12-week old female Lewis rats in the presence and absence of compound.
Rats were placed under anesthesia with isoflurane (2-4%), intubated and subsequently connected to a micro ventilator (Microvent 1, Hallowell EMC, US). Two stimulation electrodes were inserted through the skin to stimulate the sciatic nerve. A small incision was made proximal to the ankle, to expose the Achilles tendon, which was tied by cotton string, and connected to a force transducer (Fort250, World Precision Instruments) with adjustable position (Vernier control). The Achilles tendon was then cut distal to the attached cotton string. The rat was placed on a heated pad, and to prevent movement artefacts from contraction of the ankle dorsiflexors, the foot was fixated by tape on a footplate.
Muscle contractile properties were assessed by applying an electrical current (under supramaximal voltage conditions) to the nerve and recording the force generated by the muscle. The muscle was stretched until maximal force was obtained, when assessed by 2 Hz stimulation. Isometric force was measured every 30 seconds at 12 Hz (Twitch), 10 pulses, and at every 5 minutes at 80 Hz (Tetanic) for 1 second (80 pulses). This stimulation pattern was employed throughout the experiment, expect in few cases where 80 Hz stimulation was replaced by 12 Hz (10 pulses). […] When the level of neuromuscular inhibition was stable, the test article was injected i.v. at the chosen concentration. The effect of test article was assessed on its ability to increase force generated from the stimulation pattern applied. The effect was assessed in the ability to increase force per se (tetanic, 80 Hz, stimulation), and the ratio between individual twitch peaks (12 Hz stimulation). The effect was monitored for at least 1 hour after injection of test article. In addition, the time from injection of test article to maximal effect on force (both twitch and tetanic) was noted and the time for the effect to disappear (return to baseline), if possible. When appropriate the infusion of neuromuscular blocking agent was ceased, with the stimulation pattern continued, and the return of force to control levels was monitored. Animals were sacrificed by cervical dislocation while still fully sedated.

## C#Cc1cc(Br)ccc1O[C@@H](C)C(=O)O [Compound A-19, (2S)-2-(4-bromo-2-ethynylphenoxy)propanoic acid]
Human CIC-1 channels
  ΔV1/2: 7.7 mV
Lewis rats; 12 Hz stimulation
  average increase in twitch peaks: 9.6%
Lewis rats; 80 Hz stimulation
  average increase in tetanic force: 44.5%
